The molecules below were run against Nanoluciferase-BRD9 fusion protein (3×FLAG-NLuc-BRD9) in SYO-1 cells (Homo sapiens (Human), UniProt Q9H8M2) (assay: SYO1 BRD9 NanoLuc degradation assay). Conditions: SYO-1 cells expressing 3×FLAG-NLuc-BRD9, 6 hours incubation, top dose 1 μM.
Format: cell-based
Method in brief: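 Stable SYO-1 line expressing 3×FLAG-NLuc-BRD9, treated with 10-point 3-fold dilutions (top 1 μM final) for 6 hours. Nanoluciferase luminescence read with Nano-Glo reagent. % inhibition relative to DMSO (high control) and 1 μM reference BRD9 degrader (low control).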

Nanoluciferase-BRD9 fusion protein (3×FLAG-NLuc-BRD9) in SYO-1 cells, sequence (Q9H8M2 whole entry, the tested form may be a part): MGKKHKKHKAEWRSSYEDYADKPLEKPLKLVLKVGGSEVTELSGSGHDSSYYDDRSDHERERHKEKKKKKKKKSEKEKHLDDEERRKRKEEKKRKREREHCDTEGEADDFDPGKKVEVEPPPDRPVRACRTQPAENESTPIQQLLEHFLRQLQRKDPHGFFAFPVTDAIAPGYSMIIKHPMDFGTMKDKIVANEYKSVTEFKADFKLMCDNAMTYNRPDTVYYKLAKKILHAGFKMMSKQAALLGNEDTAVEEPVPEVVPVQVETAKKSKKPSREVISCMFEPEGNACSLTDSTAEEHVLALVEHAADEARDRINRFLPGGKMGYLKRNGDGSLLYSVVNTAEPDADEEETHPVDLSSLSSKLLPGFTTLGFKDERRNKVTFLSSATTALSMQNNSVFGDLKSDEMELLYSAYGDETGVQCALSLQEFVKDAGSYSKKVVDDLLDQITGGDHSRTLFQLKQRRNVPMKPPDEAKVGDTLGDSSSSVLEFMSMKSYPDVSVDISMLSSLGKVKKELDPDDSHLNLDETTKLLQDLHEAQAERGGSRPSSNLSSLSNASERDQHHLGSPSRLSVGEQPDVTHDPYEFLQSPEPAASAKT

First: COc1cc(-c2cn(C)c(=O)c3c2CCN(C(=O)NC2CCC4CN(CCCCN5CCN(c6ccc7c(c6)C(=O)N(C6CCC(=O)NC6=O)C7=O)CC5)CC42)C3)cc(OC)c1CN(C)C (stereo not shown) [Compound D221]
Second: COc1cc(-c2cn(C)c(=O)c3c2CCN(C(=O)NC2CC4(CCN(CCCCN5CCN(c6ccc7c(c6)C(=O)N(C6CCC(=O)NC6=O)C7=O)CC5)C4)C2)C3)cc(OC)c1CN(C)C (stereo not shown) [Compound D226]
The IC50 of the first is higher: 100 to 1000 nM for the first, 10 to 100 nM for the second. The second is the more potent here.

COc1cc(-c2cn(C)c(=O)c3c2CCN(C(=O)NCC2CC4(CCN(CCOc5ccc6c(c5)C(=O)N(C5CCC(=O)NC5=O)C6=O)CC4)O2)C3)cc(OC)c1CN(C)C (stereo not shown) [Compound D213] and COc1cc(-c2cn(C)c(=O)c3c2CCN(C(=O)NC2CCC24CCN(CCCOc2ccc5c(c2)C(=O)N(C2CCC(=O)NC2=O)C5=O)CC4)C3)cc(OC)c1CN(C)C (stereo not shown) [Compound D237] cannot be ordered by IC50: 100 to 1000 nM for the first, no less than 1000 nM for the second.

First: CNC(=O)N1CCc2c(-c3cc(OC)c(CN4CCC(CCN5CCN(c6ccc7c(c6F)C(=O)N(C6CCC(=O)NC6=O)C7=O)CC5)CC4)c(OC)c3)cn(C)c(=O)c2C1 (stereo not shown) [Compound D87]
Second: CNC(=O)N1CCc2c(-c3cc(OC)c(CN4CCC(CCN5CCN(c6ccc7c(c6)C(=O)N(C6CCC(=O)NC6=O)C7=O)CC5)C4)c(OC)c3)cn(C)c(=O)c2C1 (stereo not shown) [Compound D148]
The IC50 of the first is lower: less than 10 nM for the first, 10 to 100 nM for the second.

First: CNC(=O)N1CCc2c(-c3cc(OC)c(CN4CCC5(CC4)CCN(C(C)(C)C#Cc4ccc6c(c4)C(=O)N(C4CCC(=O)NC4=O)C6=O)C5)c(OC)c3)cn(C)c(=O)c2C1 (stereo not shown) [Compound D137]
Second: CNC(=O)N1CCc2c(-c3cc(OC)c(CN4CC(C(C)(C)N5CCC6(CC5)CN(c5ccc7c(c5)C(=O)N(C5CCC(=O)NC5=O)C7=O)C6)C4)c(OC)c3)cn(C)c(=O)c2C1 (stereo not shown) [Compound D124]
The IC50 of the first is higher: 10 to 100 nM for the first, less than 10 nM for the second. The second is the more potent here.

First: CNC(=O)N1CCc2c(-c3cc(OC)c(CN4CC(N(C)c5ccc6c(c5)C(=O)N(C5CCC(=O)NC5=O)C6)C4)c(OC)c3)cn(C)c(=O)c2C1 (stereo not shown) [Compound D53]
Second: CNC(=O)N1CCc2c(-c3cc(OC)c(CN(C)c4ccc5c(c4)C(=O)N(C4CCC(=O)NC4=O)C5=O)c(OC)c3)cn(C)c(=O)c2C1 (stereo not shown) [Compound D112]
The IC50 of the first is higher: 10 to 100 nM for the first, less than 10 nM for the second. The second is the more potent here.

First: COc1cc(-c2cn(C)c(=O)c3c2CCN(C(=O)NCC2CCC4(CCN(c5ccc6c(c5)C(=O)N(C5CCC(=O)NC5=O)C6=O)CC4)O2)C3)cc(OC)c1CN(C)C (stereo not shown) [Compound D120]
Second: COc1cc(-c2cn(C)c(=O)c3c2CCN(C(=O)NCCN2CCC(C4CCN(c5ccc6c(c5)C(=O)N(C5CCC(=O)NC5=O)C6=O)CC4)C2)C3)cc(OC)c1CN(C)C (stereo not shown) [Compound D205]
The IC50 of the first is higher: 100 to 1000 nM for the first, 10 to 100 nM for the second. The second is the more potent here.

CNC(=O)N1CCc2c(-c3cc(OC)c(CN4CCOC(CCN5CCN(c6ccc7c(c6)C(=O)N(C6CCC(=O)NC6=O)C7=O)CC5)C4)c(OC)c3)cn(C)c(=O)c2C1 (stereo not shown) [Compound D152] and CNC(=O)N1Cc2c(-c3cc(OC)c(CN4CCC(CCN5CCN(c6ccc7c(c6)C(=O)N(C6CCC(=O)NC6=O)C7=O)CC5)CC4)c(OC)c3)cn(C)c(=O)c2C1 (stereo not shown) [Compound D299] cannot be ordered by IC50: less than 10 nM for the first, less than 10 nM for the second.

CNC(=O)N1Cc2c(-c3cc(OC)c(CN4CCC5(CC4)CN(c4ccc6c(c4)C(=O)N([C@@H]4CCC(=O)NC4=O)C6=O)C5)c(OC)c3)cn(C)c(=O)c2C1 [Compound D300] and CNC(=O)N1CCc2c(-c3cc(OC)c(CN4CCC5(CC4)CC(Oc4ccc6c(c4)C(=O)N(C4CCC(=O)NC4=O)C6=O)C5)c(OC)c3)cn(C)c(=O)c2C1 (stereo not shown) [Compound D183] cannot be ordered by IC50: less than 10 nM for the first, less than 10 nM for the second.

CNC(=O)N1CCc2c(-c3cc(OC)c(CN4CCN(c5nn(C6CCC(=O)NC6=O)c(=O)n5C)CC4)c(OC)c3)cn(C)c(=O)c2C1 (stereo not shown) [Compound D62] and CNC(=O)N1CCc2c(-c3cc(OC)c(CN4CCN(c5cnn(C6CCC(=O)NC6=O)c5)CC4)c(OC)c3)cn(C)c(=O)c2C1 (stereo not shown) [Compound D60] cannot be ordered by IC50: no less than 1000 nM for the first, 100 to 1000 nM for the second.

First: CNC(=O)N1CCc2c(-c3cc(OC)c(CN4CCC(CCN5CC6(C5)CN(c5ccc7c(c5)C(=O)N(C5CCC(=O)NC5=O)C7=O)C6)CC4)c(OC)c3)cn(C)c(=O)c2C1 (stereo not shown) [Compound D199]
Second: CNC(=O)N1CCc2c(-c3cc(OC)c(CN4CCC(CCN5C6CC5CN(c5ccc7c(c5)C(=O)N(C5CCC(=O)NC5=O)C7=O)C6)CC4)c(OC)c3)cn(C)c(=O)c2C1 (stereo not shown) [Compound D153]
The IC50 of the first is lower: less than 10 nM for the first, 10 to 100 nM for the second. The first is the more potent here.

CNC(=O)N1CCc2c(-c3cc(OC)c(CN4CCC(C(C)(C)N5CCC6(CC5)CC(Oc5ccc7c(c5)C(=O)N(C5CCC(=O)NC5=O)C7=O)C6)CC4)c(OC)c3)cn(C)c(=O)c2C1 (stereo not shown) [Compound D114] and [2H]C([2H])([2H])NC(=O)N1CCc2c(-c3cc(OC)c(CN4CCC(CN5CCC6(CC5)CC(Oc5ccc7c(c5)C(=O)N(C5CCC(=O)NC5=O)C7=O)C6)CC4)c(OC)c3)cn(C)c(=O)c2C1 (stereo not shown) [Compound D47] cannot be ordered by IC50: less than 10 nM for the first, less than 10 nM for the second.

Going from CNC(=O)N1CCc2c(-c3cc(OC)c(CN4CCC(CCN5CCN(C67CC8CC(CC(C8)C6)C7)CC5)CC4)c(OC)c3)cn(C)c(=O)c2C1 [Compound D74] to CNC(=O)N1CCc2c(-c3cc(OC)c(CN4CCC(CCN5Cc6cc7c(cc6C5)C(=O)N(C5CCC(=O)NC5=O)C7=O)CC4)c(OC)c3)cn(C)c(=O)c2C1 (stereo not shown) [Compound D179], the IC50 falls from no less than 1000 nM to less than 10 nM.

CNC(=O)N1CCc2c(-c3cc(OC)c(CN4CCC(N5CCN(c6ccc7c(c6)C(=O)N(C6CCC(=O)NC6=O)C7=O)CC5)CC4)c(OC)c3)cn(C)c(=O)c2C1 (stereo not shown) [Compound D201] and CNC(=O)N1CCc2c(-c3cc(OC)c(CN4CCC(CCN(C)C5CCN(c6ccc7c(c6)C(=O)N(C6CCC(=O)NC6=O)C7=O)C5)CC4)c(OC)c3)cn(C)c(=O)c2C1 (stereo not shown) [Compound D197] cannot be ordered by IC50: less than 10 nM for the first, less than 10 nM for the second.

[2H]C([2H])([2H])n1cc(-c2cc(OC)c(CN3CCN(CCC4CCN(c5ccc6c(c5)C(=O)N(C5CCC(=O)NC5=O)C6=O)CC4)CC3)c(OC)c2)c2c(c1=O)CN(C(=O)NC)CC2 (stereo not shown) [Compound D45] and CNC(=O)N1CCc2c(-c3cc(OC)c(CN4CCN(CCC5CCN(c6ccc7c(c6)C(=O)N(C6CCC(=O)NC6=O)C7=O)CC5)C5(CCC5)C4)c(OC)c3)cn(C)c(=O)c2C1 (stereo not shown) [Compound D95] cannot be ordered by IC50: less than 10 nM for the first, less than 10 nM for the second.

COc1cc(-c2cn(C)c(=O)c3c2CCN(C(=O)NC2CC4CN(CCOc5ccc6c(c5)C(=O)N(C5CCC(=O)NC5=O)C6=O)CC4C2)C3)cc(OC)c1CN(C)C (stereo not shown) [Compound D273] and COc1cc(-c2cn(C)c(=O)c3c2CCN(C(=O)NC2CCC4CN(CCCOc5ccc6c(c5)C(=O)N(C5CCC(=O)NC5=O)C6=O)CC42)C3)cc(OC)c1CN(C)C (stereo not shown) [Compound D244] fall in the same range of IC50: 100 to 1000 nM for the first, 100 to 1000 nM for the second.

Compared with CNC(=O)N1CCc2c(-c3cc(OC)c(CN4CCN(CCC5CCN(c6c(F)c(F)c7c(c6F)C(=O)N(c6ccc(F)cc6F)C7=O)CC5)CC4)c(OC)c3)cn(C)c(=O)c2C1 [DD1], CNC(=O)N1CCc2c(-c3cc(OC)c(CN4CCC5(CC4)CN(C(=O)CCCOc4ccc6c(c4)C(=O)N(C4CCC(=O)NC4=O)C6=O)CCO5)c(OC)c3)cn(C)c(=O)c2C1 (stereo not shown) [Compound D203] is higher in IC50: less than 10 nM for the first, 10 to 100 nM for the second. The first is the more potent here.

Compared with COc1cc(-c2cn(C)c(=O)c3c2CCN(C(=O)NCCCN2CCC4C2CN4c2ccc4c(c2)C(=O)N(C2CCC(=O)NC2=O)C4=O)C3)cc(OC)c1CN(C)C (stereo not shown) [Compound D260], COc1cc(-c2cn(C)c(=O)c3c2CCN(C(=O)NCCCN2CC4(CCN4c4ccc5c(c4)C(=O)N(C4CCC(=O)NC4=O)C5=O)C2)C3)cc(OC)c1CN(C)C (stereo not shown) [Compound D241] is higher in IC50: 10 to 100 nM for the first, 100 to 1000 nM for the second. The first is the more potent here.

First: CNC(=O)N1CCc2c(-c3cc(OC)c(CN4CCC5(CC4)CC(N4Cc6cc7c(cc6C4)C(=O)N(C4CCC(=O)NC4=O)C7=O)C5)c(OC)c3)cn(C)c(=O)c2C1 (stereo not shown) [Compound D182]
Second: CNC(=O)N1CCc2c(-c3cc(OC)c(CN4CC5(CCC(N6Cc7cc8c(cc7C6)C(=O)N(C6CCC(=O)NC6=O)C8=O)CC5)C4)c(OC)c3)cn(C)c(=O)c2C1 (stereo not shown) [Compound D176]
The IC50 of the first is lower: less than 10 nM for the first, 10 to 100 nM for the second. The first is the more potent here.

Same assay, conditions: SYO-1 cells, 6 hours, Table 6A

Molecule CNC(=O)N1CCc2c(-c3cc(OC)c(CN(C)C(=O)CCCCCOc4cccc5c4C(=O)N(C4CCC(=O)NC4=O)C5=O)c(OC)c3)cn(C)c(=O)c2C1 (stereo not shown) [Compound D25, 5-[4-[(6-[[2-(2,6-dioxopiperidin-3-yl)-1,3-dioxoisoindol-4-yl]oxy]-N-methylhexanamido)methyl]-3,5-dimethoxyphenyl]-N,7-dimethyl-8-oxo-3,4-dihydro-1H-2,7-naphthyridine-2-carboxamide] has an IC50 of less than 10 nM.

Same assay, conditions: SYO-1 cells, 6 hours, Table 6C

Compared with CNC(=O)N1CCc2c(-c3cc(OC)c(CN4CCC(CCN5C(C)CC(c6ccc7c(c6)C(=O)N(C6CCC(=O)NC6=O)C7=O)CC5C)CC4)c(OC)c3)cn(C)c(=O)c2C1 (stereo not shown) [Compound D342], CNC(=O)N1CCc2c(-c3cc(OC)c(CN4CCN(CCC5CCN(c6ccc7c(c6)C(=O)N(C6CCC(=O)NC6=O)C7=O)CC5)CC4)c(OC)c3)c(C)n(C)c(=O)c2C1 (stereo not shown) [Compound D337] is higher in IC50: less than 10 nM for the first, no less than 1000 nM for the second. The first is the more potent here.

COc1cc(-c2cn(C)c(=O)c3c2COC3)cc(OC)c1CN1CC(C#Cc2ccc3c(c2)CN(C2CCC(=O)NC2=O)C3=O)C1 (stereo not shown) [Compound D368] and COc1cc(-c2cn(C)c(=O)c3c2COC3)cc(OC)c1CN1CCC2(CC1)CN(c1ccc3c(c1)C(=O)N(C1CCC(=O)NC1=O)C3)C2 (stereo not shown) [Compound D357] cannot be ordered by IC50: less than 10 nM for the first, less than 10 nM for the second.

COc1cc(-c2cn(C)c(=O)c3c2CCC3)cc(OC)c1CN1CCN(CCC2CCN(c3ccc4c(c3)C(=O)N(C3CCC(=O)NC3=O)C4)CC2)CC1 (stereo not shown) [Compound D348] and CNC(=O)N1CCc2c(-c3cc(OC)c(CN4CCN(CCC5CCN(c6ccc7c(c6)C(=O)N(C6CCC(=O)NC6=O)C7)CC5)CC45CC5)c(OC)c3)cn(C)c(=O)c2C1 (stereo not shown) [Compound D314] cannot be ordered by IC50: less than 10 nM for the first, less than 10 nM for the second.

Going from COc1cc(-c2cn(C)c(=O)c3c2CCC3)cc(OC)c1CN1CCC2(CC1)CN(c1cccc(N3CCC(=O)NC3=O)c1)C2 [Compound D375] to CNC(=O)N1CCc2c(-c3cc(OC)c(CN4CCN(CCC5CCN(c6ccc7c(c6)C(=O)N(C6CCC(=O)NC6=O)C7)CC5)CC4COC)c(OC)c3)cn(C)c(=O)c2C1 (stereo not shown) [Compound D340], the IC50 falls from no less than 1000 nM to less than 10 nM. The second is the more potent here.

For [2H]C([2H])([2H])n1cc(-c2cc(OC)c(CN3[C@H](C)CN(CCC4CCN(c5ccc6c(c5)CN(C5CCC(=O)NC5=O)C6=O)CC4)C[C@H]3C)c(OC)c2)c2c(c1=O)CN(C(=O)NC)CC2 (stereo partly shown) [Compound D318], the IC50 was less than 10 nM.
